The source made the active and inactive calls. No cut-off for these calls is given here.
Key:
Neisseria meningitidis [1] = experiment: Antimicrobial activity against Neisseria meningitidis infected in mouse RAW264.7 cells assessed as reduction in bacteria-induced cytotoxicity at 50 uM after 24 hrs by lactate dehydrogenase release assay relative to control; assay type: functional; parameters: scale not given: the % may be the effect or the level left
[2] = system: Burkholderia pseudomallei; experiment: Inhibition of Burkholderia pseudomallei Mip PPIase activity assessed as remaining activity using Suc-ALPF-pNA substrate measured at 400 nM by protease coupled assay relative to control
Neisseria meningitidis [3] = experiment: Inhibition of Neisseria meningitidis Mip NEIS0004 assessed as remaining activity using Suc-ALPF-pNA substrate measured at 400 nM by protease coupled assay relative to control
[4] = system: Burkholderia pseudomallei; experiment: Antimicrobial activity against Burkholderia pseudomallei K96243 infected in mouse RAW264.7 cells assessed as reduction in bacteria-induced cytotoxicity at 50 uM after 24 hrs by lactate dehydrogenase release assay relative to control; assay type: functional; parameters: scale not given: the % may be the effect or the level left
Neisseria meningitidis [5] = experiment: Inhibition of Neisseria meningitidis Mip PPIase activity assessed as remaining activity using Suc-ALPF-pNA substrate measured at 400 nM by protease coupled assay relative to control
Neisseria gonorrhoeae = experiment: Antimicrobial activity against Neisseria gonorrhoeae infected in mouse RAW264.7 cells assessed as reduction in bacteria-induced cytotoxicity at 50 uM after 24 hrs by lactate dehydrogenase release assay relative to control; assay type: functional; parameters: scale not given: the % may be the effect or the level left
[6] = Binding affinity to Burkholderia pseudomallei Mip measured after 1 hr by fluorescence polarization assay

SMILES	Activity (Neisseria meningitidis [1]) [%]	Activity [2]	Activity (Neisseria meningitidis [3])	Activity [4] [%]	Activity (Neisseria meningitidis [5])	Activity (Neisseria gonorrhoeae) [%]	Ki ([6]; read-out: Ki) [nM]	Ki [6]
CC(C)C[C@H](NC(=O)[C@@H]1CCCCN1S(=O)(=O)Cc1ccc(F)cc1)C(=O)NCc1cccnc1	56.2	5.8%	4.2%	46.8	23.6%	61.7	45.6	
O=C(NCc1cccnc1)[C@@H](Cc1ccccc1)OC(=O)[C@@H]1CCCCN1S(=O)(=O)c1ccccc1	26	151%	106%	65.9	51.1%	73.2	41100	
O=C(O[C@@H](Cc1ccccc1)C(=O)NCc1cccnc1)C1CCCCN1S(=O)(=O)Cc1ccccc1 (mixture of isomers)	38.4	15.9%	6.9%	68.5	14%	65.1	48.8	
O=C(NCc1cccnc1)[C@H](CCc1ccccc1)COC(=O)[C@@H]1CCCCN1S(=O)(=O)Cc1ccccc1	67.7	101%	70%	97.6	83.5%	53.6	3380	
CC[C@H](C)[C@H](OC(=O)C1CCCCN1S(=O)(=O)Cc1ccccc1)C(=O)NCc1cccnc1 (mixture of isomers)	58	16.8%	9.4%	94.3	73.3%	35.4	3130	
O=C(NCc1ccc[n+]([O-])c1)[C@H](Cc1ccc(F)cc1)NC(=O)[C@@H]1CCCCN1S(=O)(=O)Cc1ccc(F)cc1	52.8	40.9%	24%	51.7	49.4%	44.2	1310	
C#CCOc1ccc(C[C@H](NC(=O)[C@@H]2CCCCN2S(=O)(=O)Cc2ccc(F)cc2)C(=O)NCc2cccnc2)cc1	45.7	4.4%	4.9%	55.4	12.3%	35.2	34.3	
C=CCOC(=O)[C@H](Cc1ccc(F)cc1)NC(=O)[C@@H]1CCCCN1S(=O)(=O)Cc1ccc(F)cc1		inactive	inactive		inactive			Not Active
O=C(NCc1cccnc1)[C@@H](Cc1ccccc1)NC(=O)[C@@H]1CCCCN1S(=O)(=O)Cc1ccccc1	60.8	21.5%	45.4%	30.4	87.9%	70.6	626	
O=C(NCc1cccnc1)[C@@H](NC(=O)[C@@H]1CCCCN1S(=O)(=O)Cc1ccc(F)cc1)c1ccc(F)cc1	51.4	13.5%	30.6%	46.7	43.3%	31.4	17	
O=C(NCc1cccnc1)[C@@H](CCc1ccccc1)NC(=O)[C@@H]1CCCCN1S(=O)(=O)Cc1ccccc1	69.9	23.4%	39.9%	88.7	83.7%	41.9	320	
O=C(NCc1cccnc1)[C@@H](CCc1ccccc1)COC(=O)[C@@H]1CCCCN1S(=O)(=O)Cc1ccccc1	16	14.8%	11.1%	70.6	54%	19.8	15.3	
O=C(O[C@H](Cc1ccccc1)C(=O)NCc1cccnc1)[C@H]1CCCCN1S(=O)(=O)c1ccccc1	21	155%	108%	74.3	51.3%	58.6		Not Active
O=C(NCc1cccnc1)C(CCc1cccnc1)OC(=O)[C@@H]1CCCCN1S(=O)(=O)c1ccccc1 (mixture of isomers)	84.4	32.6%	32.8%	35.6	82%	52	4160	
CC(C)C[C@H](NC(=O)[C@@H]1CCCCN1S(=O)(=O)Cc1ccc(F)cc1)C(=O)NCc1ccc[n+]([O-])c1	71.3	21%	23.8%	61.5	44.4%	56.4	148	
O=C(NCc1cccnc1)[C@H](Cc1ccccc1)NC(=O)[C@@H]1CCCCN1S(=O)(=O)Cc1ccccc1	25	23.7%	8.5%	63.4	27.3%	40.9	34.7	
O=C(N[C@@H](Cc1ccccc1)C(=O)NCc1ccc[n+]([O-])c1)C1CCCCN1S(=O)(=O)Cc1ccccc1 (mixture of isomers)	76	51.9%	45.5%	46.2	66.7%	45.4	4450	
CC(C)C[C@H](OC(=O)C1CCCCN1S(=O)(=O)Cc1ccccc1)C(=O)NCc1cccnc1 (mixture of isomers)	36.9	17.4%	3.4%	93.2	22.1%		15.8	
O=C(NCc1cccnc1)[C@H](Cc1ccc(F)cc1)NC(=O)[C@@H]1CCCCN1S(=O)(=O)Cc1ccc(F)cc1	47.9	12.5%	37.2%	68	11.5%	50.8	18.8	
CC(C)C[C@@H](OC(=O)[C@@H]1CCCCN1S(=O)(=O)Cc1ccccc1)C(=O)NCc1cccnc1		inactive	inactive		inactive		2520	
O=C(NCc1cccnc1)[C@H](CCc1ccccc1)NC(=O)[C@@H]1CCCCN1S(=O)(=O)Cc1ccccc1	34.1	17.6%	12.9%	75.4	44.8%	71.5	10.5	
O=C(NCc1cccnc1)C(CCc1ccccc1)COC(=O)[C@@H]1CCCCN1S(=O)(=O)Cc1ccccc1 (mixture of isomers)	16.4	28.7%	8.4%	93.4	47%	63.5	207	
O=C(NCc1cccnc1)[C@@H](NC(=O)[C@@H]1CCCCN1S(=O)(=O)Cc1ccccc1)c1ccc(F)cc1	22.6	11.3%	27.2%	78.5	63.5%	28	73.2	
O=C(NCc1cccnc1)[C@H](Cc1ccccc1)OC(=O)[C@@H]1CCCCN1S(=O)(=O)c1ccccc1	41.5	7%	6.7%	72.5	10%	64.6	122	
CC(C)C[C@H](OC(=O)[C@@H]1CCCCN1S(=O)(=O)Cc1ccccc1)C(=O)NCc1cccnc1	13	4.8%	3.8%	87.8	35.6%	19.1	60.5	
O=C(NCCOC(=O)[C@@H]1CCCCN1S(=O)(=O)Cc1ccccc1)c1cccnc1	41.1	50.3%	61.9%	68.9	52.2%	27.1	3960	
O=C(NCc1cccnc1)C(CCc1ccccc1)COC(=O)[C@H]1CCCCN1S(=O)(=O)Cc1ccccc1 (mixture of isomers)	21.2	140%	119%	95.7	93.7%			Not Active
CC(C)[C@H](OC(=O)C1CCCCN1S(=O)(=O)Cc1ccccc1)C(=O)NCc1cccnc1 (mixture of isomers)	52.5	13.9%	10.9%	96.8	25.2%	65.1	1080	
COCCOc1cc(OCCOC)cc(C(=O)NCCOC(=O)[C@@H]2CCCCN2S(=O)(=O)Cc2ccccc2)c1	19.6	52.3%	88.9%	71	85%	21.5	1060	
O=C(NCc1cccnc1)[C@H](Cc1ccccc1)OC(=O)[C@H]1CCCCN1S(=O)(=O)c1ccccc1	35.2	147%	122%	82.7	27.2%	68.4	42400	

Reference: ChEMBL document CHEMBL5331130, “Analysis of Structure-Activity Relationships of Novel Inhibitors of the Macrophage Infectivity Potentiator (Mip) Proteins of Neisseria meningitidis, Neisseria gonorrhoeae, and Burkholderia pseudomallei” (J Med Chem, 2023)
